Each compound was assayed against hBPGM (Homo sapiens (Human), UniProt P07738) (assay: BPGM Synthase Assay). Conditions: Table 6 additional results; read-out: huBPGM: synthase Enzyme IC50.
Type: biochemical
Method: Example B1. BPGM Synthase Assay
The following materials were used in this assay: deionized water; Bisphosphoglycerate mutase (BPGM; Standard Buffer: 50 mM Tris, 0.01% Tween 20, pH 7.4); BPGM Reaction Buffer (50 mM Tris, 0.01% Tween 20, 3.23 mM KH2PO4, pH 7.4); dithiothreitol (DTT; Stock solution: 100 mM in Standard Buffer); 384-Well Black Assay Plate (Corning, P/N 3575); DMSO; BPGM Stock Solution (500 nM in BPGM Standard Buffer); Glyceraldehyde 3-phosphate dehydrogenase (GAPDH; Stock Solution: 40 U/mL in 20 mM Tris-HCL Buffer with 20% Glycerol, 1 mM EDTA, 1 mM DTT); Glyceraldehyde 3-phosphate (GAP; Stock Solution: 20 mM in BPGM Standard Buffer); 3-PG Stock Solution (500 μM in BPGM Standard Buffer); Nicotinamide adenine dinucleotide (NAD; Stock Solution: 50 mM in BPGM Standard Buffer); Koningic Acid (1 mM Stock in DMSO); Resazurin Stock Solution (10 mM in DMSO); Diaphorase Stock Solution (40 U/mL in BPGM Standard Buffer); DTT Reaction Buffer (1 mM DTT in BPGM Reaction Buffer); Enzyme Solution (5 nM BPGM, 0.4 U/mL GAPDH in DTT Reaction Buffer); GAPDH Solution (0.4 U/mL GAPDH in DTT Reaction Buffer); Substrate Solution (2 mM NAD, 20 μM 3PG, 800 μM GAP in DTT Reaction Buffer); and Resazurin Solution (5 U/mL Diaphorase, 500 μM Resazurin in BPGM Standard Buffer).
To the assay plate was added Enzyme Solution (20 uL) to columns 2-22 and 24 of the assay plate. To columns 1 and 23 was added GAPDH Solution (20 uL). A separate compound plate was prepared at the desired concentrations and all wells were normalized with 5% DMSO. The compound plate was incubated for 30 minutes at RT. Next, the substrate solution (20 μL) was dispensed to all reaction wells and the plate was incubated for 60 minutes at RT. Koningic acid (1 μL) was added and the plate was incubated for 10 minutes at RT. During this time period, the NADH fluorescence was read at ex: 360/em: 460. Next, Resazurin Solution (10 μL) was added to all reaction wells and the plate was incubated for 30 minutes at RT. The resorufin fluorescence was then read at ex:544/em:590.

hBPGM, sequence (P07738 whole entry, looked up): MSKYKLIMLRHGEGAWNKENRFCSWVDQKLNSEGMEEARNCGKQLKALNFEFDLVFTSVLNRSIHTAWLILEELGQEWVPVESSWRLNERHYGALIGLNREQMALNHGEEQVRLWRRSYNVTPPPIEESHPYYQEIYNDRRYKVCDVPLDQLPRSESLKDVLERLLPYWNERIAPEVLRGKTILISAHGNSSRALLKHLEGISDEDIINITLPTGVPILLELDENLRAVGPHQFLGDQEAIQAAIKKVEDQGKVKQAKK

| SMILES | IC50 [µM] |
| --- | --- |
| Cc1nc(Cn2c(C)ccc(C#N)c2=O)sc1-c1cccc(-c2ccc(C(=O)O)c(O)c2)c1 [Example 295] | 0.6 |
| Cc1nc(COc2ncccn2)sc1-c1cccc(-c2ccc(C(=O)NCC(=O)N3CCC(C(=O)O)C3)cc2)n1 (stereo not shown) [Example 91] | > 25 |
| Cc1ccc(C#N)c(OCCc2ccn(-c3cccc(-c4ccc(C(=O)O)c(O)c4)c3)n2)n1 [Example 311] | 21 |
| Cc1nc(C)c(-c2cccc(-c3ccc(C(=O)O)c(O)c3)c2)s1 [Example 329] | 2.3 |
| Cc1nc(COc2ccc(C(F)(F)F)cn2)sc1-c1cccc(-c2ccc(C(=O)O)cc2)n1 [Example 56] | 3.3 |
| Cc1nc(CNCC(C)(C)C)sc1-c1cccc(-c2ccc(C(=O)O)cc2)c1 [Example 42] | > 25 |
| Cc1nc(Cc2ccccn2)sc1-c1cccc(-c2ccc(C(=O)O)cc2)c1 [Example 287] | 0.91 |
| Cc1nc(C)c(-c2cc(-c3ccc(C(=O)O)cc3)ccc2C)s1 [Example 307] | > 250 |
| COC(=O)NCc1nc(C)c(-c2csc(-c3cc(N)c(C(=O)O)cc3F)n2)s1 [Example 195] | 1.2 |
| Cc1nc(COc2ccc(F)cn2)sc1-c1cccc(-c2ccc(C(=O)O)c(C(F)F)c2)n1 [Example 22] | 0.29 |
| Cc1nc(COc2ncccn2)sc1-c1cccc(-c2cc(C(=O)O)co2)n1 [Example 39] | 18 |
| Cc1nc(COc2ccc(F)cn2)sc1-c1cccc(-c2ccc(C(=O)O)c(O)c2)n1 [Example 26] | 0.43 |
| Cc1ncc(-c2cccc(-c3ccc(C(=O)O)c(O)c3)c2)s1 [Example 325] | 3.5 |
| Cc1nc(CN2CCCCC2)sc1-c1cccc(-c2ccc(C(=O)O)c(O)c2)c1 [Example 298] | 5 |
| Cc1nc(COCC2CCCO2)sc1-c1cccc(-c2ccc(C(=O)O)cc2)c1 (stereo not shown) [Example 46] | 1.2 |
| Cc1nc(CO)sc1-c1cccc(-c2ccc(C(=O)NCC(=O)N3CCC(C(=O)O)C3)cc2)n1 (stereo not shown) [Example 92] | > 25 |
| Cc1nc(Cc2ccccc2F)sc1-c1cccc(-c2ccc(C(=O)O)c(O)c2)c1 [Example 104] | 1.5 |
| Cc1nc(COc2ccccn2)sc1-c1cccc(-c2ccc(C(=O)O)nc2)c1 [Example 58] | > 25 |
| Cc1nc(COc2ncccn2)sc1-c1cccc(-c2ccc(C(=O)O)cc2C(C)C)n1 [Example 28] | > 25 |
| CC(=O)NCCc1nc(C)c(-c2cccc(-c3ccc(C(=O)O)c(O)c3)c2)s1 [Example 258] | 11 |
| Cc1nc(CNC(=O)C(C)(C)C)sc1-c1cccc(-c2ccc(C(=O)O)cc2)n1 [Example 62] | 1.8 |
| Cc1nc(COCc2ccccn2)sc1-c1csc(-c2cc(O)c(C(=O)O)cc2F)n1 [Example 144] | 0.2 |
| Cc1nc(COc2ncccn2)sc1-c1cccc(-c2ccc(C(=O)N[C@@H](C(=O)O)c3ccccc3)cc2)n1 [Example 36] | 2.7 |
| Cc1ccc(C#N)c(OCCn2cc(-c3cccc(-c4ccc(C(=O)O)c(O)c4)c3)cn2)n1 [Example 111] | 15 |

| SMILES | IC50 [µM] |
| --- | --- |
| Cc1nc(COc2ncccn2)sc1-c1cccc(-c2ccc(C(=O)O)c(C(=O)O)c2)n1 [Example 70] | 11 |
| Cc1cc(C(=O)O)cc(C)c1-c1cccc(-c2sc(COc3ncccn3)nc2C)n1 [Example 31] | > 25 |
| Cc1nc(C)c(-c2ccn(-c3ccc(C(=O)O)c(O)c3)n2)s1 [Example 288] | 3.8 |
| Cc1ccc(C#N)c(OCCn2cc(-c3cccc(-c4ccc(C(=O)O)c(O)c4)c3)c(C)n2)n1 [Example 330] | 6.6 |
| COC(=O)NCc1nc(C)c(-c2csc(-c3cc(NC(=O)OC)c(C(=O)O)cc3F)n2)s1 [Example 196] | 5.6 |
| Cc1cc(-c2ccc(C(=O)O)cc2)cc(-c2sc(C)nc2C)c1 [Example 300] | 160 |
| Cc1nc(COc2ccc(F)cn2)sc1-c1ccn(-c2ccc(C(=O)O)cc2)n1 [Example 18] | 0.65 |
| Cc1nc(CN2CCOCC2)sc1-c1cccc(-c2ccc(C(=O)O)c(O)c2)c1 [Example 296] | 3.7 |
| Cc1nc(CO)sc1-c1cccc(-c2c[nH]c(C(=O)O)c2)n1 [Example 77] | > 25 |
| Cc1ccc(C#N)c(OCCc2nc(C)c(-c3cccc(-c4ccc(C(=O)O)c(O)c4)c3)s2)n1 [Example 107] | 1.9 |
| Cc1nc(C)c(-c2ccc(C)c(-c3ccc(C(=O)O)cc3)c2)s1 [Example 305] | 82 |
| CN(C)C(=O)OCC1CCN(c2cccc(-c3ccc(C(=O)O)cc3)n2)CC1 [Example 25] | > 25 |
| Cc1nc(C)c(-c2cccc(-c3ccc(O)c(C(=O)O)c3)c2)s1 [Example 318] | 4.8 |
| Cc1nc(C)c(-c2coc(-c3ccc(C(=O)O)c(O)c3)n2)s1 [Example 271] | 8 |
| Cc1nc(C(=O)O)sc1-c1cccc(-c2cc(F)c3[nH]nnc3c2F)n1 [Example 342] | 1.9 |
| Cc1nc(CCc2ccccc2)sc1-c1cccc(-c2ccc(C(=O)O)c(O)c2)c1 [Example 109] | 8.1 |
| Cc1nc(C)c(-c2nsc(-c3cc(O)c(C(=O)O)cc3F)n2)s1 [Example 205] | 1.1 |
| O=C(O)c1ccc(-c2cccc(N3CCC(COc4ncccn4)CC3)n2)cc1 [Example 24] | > 25 |
| Cc1nc(COc2ccccn2)sc1-c1cccc(-c2ccc(C(=O)O)cc2)n1 [Example 57] | > 25 |
| Cc1nc(COCC(C)(C)O)sc1-c1cccc(-c2ccc(C(=O)O)c(O)c2)c1 [Example 335] | 0.31 |
| Cc1nc(OCC2CCCCO2)sc1-c1cccc(-c2ccc(C(=O)O)cc2)n1 (stereo not shown) [Example 41] | 19 |
| Cc1nc(C)c(-c2ccc(=O)n(-c3ccc(C(=O)O)c(O)c3)c2)s1 [Example 319] | > 250 |
| Cc1nc(C)c(-c2cccc(-c3ccc(C(=O)O)c(C(F)(F)F)c3)c2)s1 [Example 314] | 100 |
| COC(=O)NCc1nc(C)c(-c2cc(-c3ccc(C(=O)O)c(O)c3)sn2)s1 [Example 157] | 0.8 |

| SMILES | IC50 [µM] |
| --- | --- |
| COC(=O)NCc1nc(C)c(-c2csc(-c3ccc(C(=O)NS(=O)(=O)c4cccc(OCC(=O)O)c4)cc3)n2)s1 [Example 331] | > 25 |
| Cc1nc(COc2ncccn2)sc1-c1ccnc(-c2ccc(C(=O)O)cc2)c1 [Example 23] | 17 |
| Cc1nc(COc2ncccn2)sc1-c1cccc(-c2ccc(C(=O)NCC(=O)N3CCC(C(=O)O)CC3)cc2)n1 [Example 90] | > 25 |
| Cc1nc(COc2ccc(C(F)(F)F)nc2)sc1-c1cccc(-c2ccc(C(=O)O)cc2)n1 [Example 61] | 1.3 |
| Cc1nc(COc2ncccn2)sc1-c1cccc(-c2ccc3c(C(=O)O)c[nH]c3c2)n1 [Example 334] | 1.7 |
| CNC(=O)CCc1nc(C)c(-c2cccc(-c3ccc(C(=O)O)c(O)c3)c2)s1 [Example 264] | 7 |
| Cc1nc(COc2ccc(F)cn2)sc1-c1ccn(-c2ccc(C(=O)O)c(C(F)F)c2)n1 [Example 17] | 0.89 |
| Cc1nc(COc2ncccn2)sc1-c1cccc(-c2cc(C(=O)O)nn2C(C)C)n1 [Example 30] | 15 |
| Cc1nc(C)c(N2CCN(c3ccc(C(=O)O)c(O)c3)C2=O)s1 [Example 339] | > 25 |
| Cc1nc(C)c(-c2cccc(-c3ccc(C(=O)O)c(O)c3)n2)s1 [Example 302] | 1.2 |
| Cc1nc(C)c(-c2cc(-c3ccc(C(=O)O)c(O)c3)ccn2)s1 [Example 293] | 9.3 |
| Cc1nc(C)c(NC(=O)Nc2ccc(C(=O)O)c(O)c2)s1 [Example 337] | > 25 |
| Cc1nc(C)c(-c2cccc(-c3ccc(C(=O)O)cc3)c2F)s1 [Example 297] | 28 |
| Cc1nc(COc2ccc(F)cn2)sc1-c1ccn(-c2ccc(C(=O)O)c(O)c2)n1 [Example 21] | 0.29 |
| Cc1ccc(C#N)c(OCC(=O)N2CC(c3cccc(-c4ccc(C(=O)O)cc4)c3)C2)n1 [Example 322] | > 250 |
| Cc1ccc(C#N)c(OCCn2cc(-c3cccc(-c4ccc(C(=O)O)c(O)c4)c3)c(C)n2)n1 [Example 112] | 35 |
| Cc1nc(C)c(-c2ccc(C#N)c(-c3ccc(C(=O)O)c(O)c3)c2)s1 [Example 294] | 44 |
| Cc1nc(CC(F)(F)F)sc1-c1cccc(-c2ccc(C(=O)O)c(O)c2)c1 [Example 292] | 5.8 |
| Cc1nc(Cc2ccc(C(F)(F)F)cc2)sc1-c1cccc(-c2ccc(C(=O)O)c(O)c2)c1 [Example 312] | 6.6 |
| Cc1nc(COC2CCOC2)sc1-c1cccc(-c2ccc(C(=O)O)cc2)c1 (stereo not shown) [Example 44] | 1.9 |
| Cc1nc(COc2ccc(F)cn2)sc1-c1cnn(-c2ccc(C(=O)O)c(O)c2)c1 [Example 20] | 2.1 |
| COC(=O)NCc1ccc(-c2csc(-c3cc(O)c(C(=O)O)cc3F)n2)cn1 [Example 187] | 1.7 |
